Paper PMC12169615, “Fluorescent 4‑Nitrobenzo-2-oxa-1,3-diazole-Coupled Bile Acids as Probe Substrates of Hepatic and Intestinal Bile Acid Transporters of the Solute Carrier Families SLC10 and SLCO” (Journal of Medicinal Chemistry, 2025)
Several values for one entry are separate records, joined by “and”; a condition that tells them apart may be missing. Equal entries are not always repeated.

Legend:
[1] = molecular target: T1, mouse mNtcp (Mus musculus, UniProt O08705); test: Fluorescence microscopy screening of cellular uptake of 3-NBD-BA; type: cell-based; conditions: 50 μM, 10 min, +Na+ vs -Na+
T1 construct: stably transfected with the full open reading frames of human NTCP, ASBT, SOAT, OATP1B1, and OATP1B3 as well as mouse mNtcp and mAsbt; expressed in transfected cells
T1 sequence (O08705 1-362): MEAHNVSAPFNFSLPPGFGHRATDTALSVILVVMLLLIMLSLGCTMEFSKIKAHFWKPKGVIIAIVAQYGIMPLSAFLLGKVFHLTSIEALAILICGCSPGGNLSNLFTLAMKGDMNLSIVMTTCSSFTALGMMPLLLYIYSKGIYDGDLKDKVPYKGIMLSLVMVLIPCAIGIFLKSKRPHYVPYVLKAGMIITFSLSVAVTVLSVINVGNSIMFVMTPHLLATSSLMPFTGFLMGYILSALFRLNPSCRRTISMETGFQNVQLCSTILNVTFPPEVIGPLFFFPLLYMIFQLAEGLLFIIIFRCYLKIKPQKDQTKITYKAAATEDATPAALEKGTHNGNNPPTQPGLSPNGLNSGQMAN
Protocol: (§1) Then, all cell lines were cultivated in chamber slides and were grown to confluence to screen for carrier-mediated cellular accumulation of the synthesized NBD-BA. Incubation with the NBD-BA was done in the presence of sodium (+Na^+) as well as in the absence of sodium (-Na^+, negative control) for all SLC10 carriers, namely NTCP, ASBT, mNtcp, mAsbt, and SOAT. For OATP1B1 and OATP1B3, nontransfected HEK293 cells were used as negative control.
(§2) 4 Screening of the cellular uptake of 3-NBD-BA in HEK293 (HEK) cells stably expressing the human carriers NTCP, ASBT, SOAT, OATP1B1, and OATP1B3, or the mouse carriers mNtcp and mAsbt. For the SLC10 carriers, sodium-free conditions (-Na^+) were used as control. For the OATPs, experiments in non-carrier-expressing HEK293 cells (HEK) served as control. All cell lines were incubated for 10 min with the indicated 3-NBD-BA at 50 μM concentration. Then, cells were washed with PBS and subjected to fluorescence microscopy. Identical microscope settings were used for all images. Scale bar: 75 μm.

[2] = molecular target: T2, human NTCP (Homo sapiens, UniProt Q14973); test: as above; type: cell-based; conditions: 50 μM, 10 min, +Na+ vs -Na+
T2 construct: HEK293 cell lines stably transfected with the full open reading frames of human NTCP; expressed in transfected cells
T2 sequence (Q14973 1-349): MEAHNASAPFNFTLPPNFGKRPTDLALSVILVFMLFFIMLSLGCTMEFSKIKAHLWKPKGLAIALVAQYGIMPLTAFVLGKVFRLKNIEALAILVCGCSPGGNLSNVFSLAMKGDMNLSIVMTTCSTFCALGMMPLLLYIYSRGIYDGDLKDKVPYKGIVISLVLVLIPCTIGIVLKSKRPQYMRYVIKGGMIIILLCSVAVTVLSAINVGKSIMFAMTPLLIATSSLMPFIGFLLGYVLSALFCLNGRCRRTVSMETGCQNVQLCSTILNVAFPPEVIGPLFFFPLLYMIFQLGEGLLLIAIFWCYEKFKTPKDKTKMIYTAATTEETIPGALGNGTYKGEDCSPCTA
Protocol: as §1, §2

[3] = molecular target: T1, mouse mNtcp; test: Transport kinetics of conjugated 3-NBD-BA (concentration-dependent uptake); type: cell-based; conditions: mNtcp-HEK293, 10 min uptake, 37 °C, specific (Na+-dependent) uptake
Protocol: (§3) In a first step, the time-dependent transport of all conjugated NBD-BA was analyzed. […] Based on these findings, an uptake phase of 10 min was selected as the most practical for subsequent kinetic transport measurements. […] In contrast, for ASBT, reliable carrier-specific concentration-dependent transport rates and K m values could only be determined for 3α-NBD-GCA (16d). The transport rates for 3β-NBD-TCA (14a), 3β-NBD-TCDCA (14b), 3β-NBD-GCA (16a), and 3α-NBD-TCA (14d) were at ≤ 2 across the entire concentration range and were therefore not considered biologically meaningful.
(§4) 6 NTCP and mNtcp transport kinetics for conjugated 3-NBD-BA. Concentration-dependent uptake of the indicated NBD-coupled BA was analyzed in HEK293 cells stably expressing human NTCP or mouse mNtcp at increasing substrate concentrations. Control experiments were performed in the absence of sodium (-Na^+). Uptake was analyzed for 10 min at 37 °C with transport buffer containing the indicated 3-NBD-BA. Afterward, the transport medium was removed, and each cell monolayer was washed and processed for fluorescence detection. Specific uptake was calculated by subtracting the nonspecific uptake in the absence of sodium (-Na^+, open symbols) from the uptake in the presence of sodium (+Na^+, closed symbols) and is shown by dotted lines. Values represent means ± SD of quadruplicate determinations. Michaelis Menten K m values were calculated by nonlinear regression analysis based on the specific uptake data.

[4] = molecular target: T2, human NTCP; test: as above; type: cell-based; conditions: NTCP-HEK293, 10 min uptake, 37 °C, specific (Na+-dependent) uptake
Protocol: as §3, §4

[5] = set-up: method as in not given; conditions: ref not given, cited from earlier work

| Compound | Cellular NBD-fluorescence, mNtcp-HEK293 (microscopy) [1] | Cellular NBD-fluorescence, NTCP-HEK293 (microscopy) [2] | K m mNtcp [3] | K m NTCP [4] | Amount injected recovered in the bile ([5]; in situ liver perfusion, injected into the mesenterial vein, within 30 min) | Fate in the liver (metabolism, secretion into bile) ([5]; in situ liver perfusion with bile duct cannulation) |
| --- | --- | --- | --- | --- | --- | --- |
| C[C@H](CCC(=O)NCCS(=O)(=O)[O-])[C@H]1CC[C@H]2[C@@H]3[C@H](O)C[C@@H]4C[C@@H](Nc5ccc([N+](=O)[O-])c6nonc56)CC[C@]4(C)[C@H]3C[C@H](O)[C@]12C.[Na+] [14a] | significant increase in cellular NBD-fluorescence compared to the negative control | significant increase in cellular NBD-fluorescence compared to the negative control | 20.6 µM | 29.5 µM | 95% | – |
| C[C@H](CCC(=O)NCCS(=O)(=O)[O-])[C@H]1CC[C@H]2[C@@H]3[C@H](O)C[C@@H]4C[C@H](Nc5ccc([N+](=O)[O-])c6nonc56)CC[C@]4(C)[C@H]3C[C@H](O)[C@]12C.[Na+] [14d] | significant increase in cellular NBD-fluorescence compared to the negative control | significant increase in cellular NBD-fluorescence compared to the negative control | 9.5 µM | 20.0 µM and 20 µM | – | completely transformed within the liver cells to a polar fluorescent metabolite that showed sparse secretion into bile |
| C[C@H](CCC(=O)NCC(=O)O)[C@H]1CC[C@H]2[C@@H]3[C@H](O)C[C@@H]4C[C@@H](Nc5ccc([N+](=O)[O-])c6nonc56)CC[C@]4(C)[C@H]3C[C@H](O)[C@]12C [16a] | significant increase in cellular NBD-fluorescence compared to the negative control | significant increase in cellular NBD-fluorescence compared to the negative control | 17.2 µM | 43.1 µM | – | – |
| C[C@H](CCC(=O)NCC(=O)O)[C@H]1CC[C@H]2[C@@H]3[C@H](O)C[C@@H]4C[C@H](Nc5ccc([N+](=O)[O-])c6nonc56)CC[C@]4(C)[C@H]3C[C@H](O)[C@]12C [16d] | significant increase in cellular NBD-fluorescence compared to the negative control | significant increase in cellular NBD-fluorescence compared to the negative control | 5.2 µM | 36.8 µM | – | – |
